According to US9682925B2, “Cyclopropaneamine compound” (TAKEDA PHARMACEUTICAL COMPANY LIMITED, priority 2011, dated 2017):
Counter-ions that a name gives are not always drawn. Like-named read-outs stand apart in the source and are kept apart here.

Experiments:
Type in all cases: biochemical
[1] = target: T1, human LSD1(171-852) (Homo sapiens, UniProt O60341); assay: Measurement of LSD1 inhibitory activity (time-resolved fluorescence, biotin-histone H3 mono methylated K4 peptide)
T1 construct: to give hLSD1(171-852) purified product; made in house; host or cells: Escherichia coli C43(DE3) pLysS

[2] = target: T2, MAO-A (Homo sapiens, UniProt P21397); assay: Measurement of MAO-A inhibitory activity (MAO-Glo Assay)
T2 construct: purchased Sigma-Aldrich Co. LLC
T2 sequence (P21397 1-527): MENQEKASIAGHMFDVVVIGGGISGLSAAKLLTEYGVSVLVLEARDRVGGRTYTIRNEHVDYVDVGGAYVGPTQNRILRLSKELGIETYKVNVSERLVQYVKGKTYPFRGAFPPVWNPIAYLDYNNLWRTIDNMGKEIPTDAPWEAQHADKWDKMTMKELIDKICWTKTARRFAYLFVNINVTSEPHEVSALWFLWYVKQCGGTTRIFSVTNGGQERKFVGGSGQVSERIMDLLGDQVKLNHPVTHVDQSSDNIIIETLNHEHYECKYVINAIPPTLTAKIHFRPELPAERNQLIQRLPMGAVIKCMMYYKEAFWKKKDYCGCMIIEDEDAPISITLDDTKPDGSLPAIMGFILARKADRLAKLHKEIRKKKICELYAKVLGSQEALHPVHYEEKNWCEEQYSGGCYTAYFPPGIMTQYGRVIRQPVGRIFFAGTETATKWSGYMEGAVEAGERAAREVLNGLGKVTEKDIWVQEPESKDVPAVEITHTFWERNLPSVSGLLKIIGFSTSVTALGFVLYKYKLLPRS
Method in brief: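 Luminescent MAO-Glo read-out: % inhibition computed from counts relative to enzyme-only control and enzyme-free blank. Compound and 400 ng MAO-A in HEPES pH 7.5 with 5% glycerol stood 10 min at room temperature before MAO substrate (160 μM stock) started a 60 min reaction.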

[3] = target: T3, MAO-B (Homo sapiens, UniProt P27338); assay: Measurement of MAO-B inhibitory activity (MAO-Glo Assay)
T3 construct: purchased Sigma-Aldrich Co. LLC
T3 sequence (P27338 1-520): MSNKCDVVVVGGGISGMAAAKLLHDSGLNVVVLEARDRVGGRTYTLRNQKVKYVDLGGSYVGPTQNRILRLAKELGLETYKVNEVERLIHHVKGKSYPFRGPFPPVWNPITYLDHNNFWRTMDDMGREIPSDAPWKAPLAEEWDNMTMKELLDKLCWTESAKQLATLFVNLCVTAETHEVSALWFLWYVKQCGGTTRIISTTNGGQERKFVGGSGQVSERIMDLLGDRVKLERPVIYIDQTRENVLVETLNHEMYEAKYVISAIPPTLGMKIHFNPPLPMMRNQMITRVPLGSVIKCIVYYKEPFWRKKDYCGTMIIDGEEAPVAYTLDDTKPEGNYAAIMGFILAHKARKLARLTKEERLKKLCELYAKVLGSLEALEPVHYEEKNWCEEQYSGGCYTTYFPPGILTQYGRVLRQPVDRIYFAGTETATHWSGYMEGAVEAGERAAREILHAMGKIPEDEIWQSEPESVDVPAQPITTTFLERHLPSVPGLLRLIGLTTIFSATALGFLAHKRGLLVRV
Method in brief: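 Percent inhibition was calculated from luciferin-based luminescence, corrected with a blank lacking enzyme and a control lacking compound. The reaction ran 60 min at room temperature after adding MAO substrate (16 µM as added). This followed a 10 min compound–enzyme preincubation in HEPES pH 7.5 buffer.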

Row | IC50 ([1]; read-out: LSD1 IC50 value) | IC50 [2] | IC50 [3] | SMILES | IC50 [1]
1 | < 0.1 µM | 8.3 µM | > 10 µM | O=C(Nc1ccc([C@@H]2C[C@H]2NCC2CC2)cc1)c1ccc(-c2cccnc2)cc1 (relative stereo) [Example 132, N-(4-{trans-2-[(cyclopropyl-methyl)amino]-cyclopropyl}-phenyl)-4-(pyridin-3-yl)benzamide] | –
2 | < 0.1 µM | > 10 µM | > 10 µM | O=C(Nc1ccc([C@@H]2C[C@H]2NCC2CC2)cc1)c1cc(-c2ccccc2)[nH]n1 (relative stereo) [Example 126, N-(4-{trans-2-[(cyclopropyl-methyl)amino]cyclo-propyl}phenyl)-5-phenyl-1H-pyrazole-3-carboxamide] | –
3 | < 0.1 µM | > 10 µM | > 10 µM | O=C(Nc1ccc([C@@H]2C[C@H]2NCC2CC2)cc1)c1ccc2[nH]ccc2c1 (relative stereo) [Example 114, N-(4-{trans-2-[(cyclopropylmethyl)amino]cyclopropyl}phenyl)-1H-indole-5-carboxamide trifluoroacetate] | –
4 | < 0.1 µM | > 10 µM | > 10 µM | Cc1oc(-c2ccccc2)nc1C(=O)Nc1ccc([C@@H]2C[C@H]2NCC2CC2)cc1 (relative stereo) [Example 122, N-(4-{trans-2-[(cyclopropylmethyl)amino]cyclopropyl}-phenyl)-5-methyl-2-phenyl-1,3-oxazole-4-carboxamide] | –
5 | < 0.1 µM | 0.1 µM | > 10 µM | O=C(Nc1ccc([C@@H]2C[C@H]2NCC2CC2)cc1)c1ccc(-c2csnn2)cc1 (relative stereo) [Example 119, N-(4-{trans-2-[(cyclopropylmethyl)amino]cyclopropyl}-phenyl)-4-(1,2,3-thiadiazol-4-yl)benzamide] | –
6 | < 0.1 µM | 4.6 µM | > 10 µM | O=C(Nc1ccc([C@@H]2C[C@H]2NCc2ccccc2)cc1)c1cccc(-c2ccccc2)c1 (relative stereo) [Example 36, N-{4-[trans-2-(benzylamino)cyclopropyl]phenyl}biphenyl-3-carboxamide] | –
7 | < 0.1 µM | 3.5 µM | > 10 µM | O=C(Nc1ccc([C@@H]2C[C@H]2NCc2ccccc2)cc1)c1cccc(Cc2ccccc2)c1 (relative stereo) [Example 28, 3-benzyl-N-{4-[trans-2-(benzylamino)cyclopropyl]phenyl}benzamide] | –
8 | < 0.1 µM | > 10 µM | > 10 µM | COc1ccc(CN[C@@H]2C[C@H]2c2ccc(NC(=O)c3ccc(-c4ccccc4)cc3)cc2)cc1OC (relative stereo) [Example 46, N-(4-{trans-2-[(3,4-dimethoxy-benzyl)amino]cyclo-propyl}phenyl)-biphenyl-4-carboxamide] | –
9 | < 0.1 µM | 6 µM | > 10 µM | O=C(Nc1ccc([C@@H]2C[C@H]2NCc2ccccc2F)cc1)c1ccccc1 (relative stereo) [Example 15, N-(4-{trans-2-[(2-fluoro-benzyl)amino]-cyclopropyl}-phenyl)benzamide] | –
10 | < 0.1 µM | 2.5 µM | > 10 µM | O=C(Nc1ccc([C@@H]2C[C@H]2NCC2CC2)cc1)c1nc(-c2ccccc2)cs1 (relative stereo) [Example 125, N-(4-{trans-2-[(cyclopropyl-methyl)amino]cyclo-propyl}phenyl)-4-phenyl-1,3-thiazole-2-carboxamide] | –
11 | 0.48 µM | > 10 µM | > 10 µM | O=C(N[C@@H](Cc1ccccc1)C(=O)Nc1ccc(C2CC2NCc2ccccc2)cc1)OCc1ccccc1 (stereo in doubt) [Example 57, N-{4-[trans-2-(benzylamino)cyclopropyl]phenyl}-Nα-[(benzyloxy)carbonyl]-L-phenylalaninamide hydrochloride] | –
12 | 0.41 µM | > 10 µM | > 10 µM | O=C(N[C@H](Cc1ccccc1)C(=O)Nc1ccc(C2CC2NCc2ccccc2)cc1)OCc1ccccc1 (stereo in doubt) [Example 58, N-{4-[trans-2-(benzylamino)cyclopropyl]phenyl}-Nα-[(benzyloxy)carbonyl]-D-phenylalaninamide hydrochloride] | –

More lines, now with the values behind:

Row | SMILES | IC50 ([1]; read-out: LSD1 IC50 value) | IC50 [2] | IC50 [3] | IC50 [1]
13 | CC(C)N1CCC(N[C@@H]2C[C@H]2c2ccc(NC(=O)c3cccc(C(F)(F)F)c3)cc2)CC1 (relative stereo) [Example 112, N-[4-(trans-2-{[1-(1-methylethyl)piperidin-4-yl]amino}cyclopropyl)phenyl]-3-(trifluoromethyl)benzamide dihydrochloride] | < 0.1 µM | > 10 µM | > 10 µM | –
14 | CN1C2CCC1CC(N[C@@H]1C[C@H]1c1ccc(NC(=O)c3cccc(C(F)(F)F)c3)cc1)C2 (relative stereo) [Example 149, N-(4-{trans-2-[(8-methyl-8-azabicyclo[3.2.1]oct-3-yl)amino]cyclopropyl}phenyl)-3-(trifluoromethyl)benzamide dihydrochloride] | – | > 10 µM | > 10 µM | < 0.1 µM
15 | Cc1ccc(-c2ccc(C(=O)Nc3ccc([C@@H]4C[C@H]4NCC4CC4)cc3)cc2)cc1 (relative stereo) [Example 118, N-(4-{trans-2-[(cyclopropylmethyl)amino]cyclopropyl}-phenyl)-4′-methylbiphenyl-4-carboxamide] | 0.1 µM | > 10 µM | > 10 µM | –
16 | O=C(Nc1ccc([C@@H]2C[C@H]2NCc2ccccc2)cc1)c1cccc(N2CCCCC2)c1 (relative stereo) [Example 32, N-{4-[trans-2-(benzylamino)cyclopropyl]phenyl}-3-piperidin-1-ylbenzamide] | < 0.1 µM | > 10 µM | > 10 µM | –
17 | O=C(Nc1ccc([C@@H]2C[C@H]2NCc2ccccc2)cc1)c1cccc(C(F)(F)F)c1 (relative stereo) [Example 8, N-{4-[trans-2-(benzylamino)cyclopropyl]phenyl}-3-(trifluoromethyl)benzamide] | < 0.1 µM | 5.8 µM | > 10 µM | –
18 | CN(C(=O)c1ccc(-c2ccccc2)cc1)c1ccc([C@@H]2C[C@H]2NCC2CC2)cc1 (relative stereo) [Example 64, N-(4-{trans-2-[(cyclopropylmethyl)amino]cyclopropyl}phenyl)-N-methylbiphenyl-4-carboxamide hydrochloride] | 0.2 µM | 8.5 µM | > 10 µM | –
19 | O=C(Nc1ccc([C@@H]2C[C@H]2NC2CCN(Cc3ccccc3)CC2)cc1)c1ccccc1 (relative stereo) [Example 25, N-(4-{trans-2-[(1-benzyl-piperidin-4-yl)amino]cyclo-propyl}phenyl)-benzamide] | < 0.1 µM | > 10 µM | > 10 µM | –
20 | O=C(Nc1ccc([C@@H]2C[C@H]2NC2c3ccccc3-c3ccccc32)cc1)c1ccccc1 (relative stereo) [Example 21, N-{4-[trans-2-(9H-fluoren-9-ylamino)cyclo-propyl]phenyl}-benzamide] | < 0.1 µM | > 10 µM | > 10 µM | –
21 | CC(C)(C)c1ccc(-c2ccc(C(=O)Nc3ccc([C@@H]4C[C@H]4NCC4CC4)cc3)cc2)cc1 (relative stereo) [Example 120, 4′-tert-butyl-N-(4-{trans-2-[(cyclopropylmethyl)amino]cyclopropyl}-phenyl)biphenyl-4-carboxamide] | 1.6 µM | > 10 µM | > 10 µM | –
22 | O=C(Nc1ccc([C@@H]2C[C@H]2NCCCc2ccccc2)cc1)c1ccccc1 (relative stereo) [Example 14, N-(4-{trans-2-[(3-phenyl-propyl)amino]-cyclopropyl}-phenyl)benzamide] | < 0.1 µM | > 10 µM | > 10 µM | –
